Reference: patent publication US8541460B2, “PDK-1/Akt signaling inhibitors” (The Ohio State University, priority 2003, dated 2013)

Legend:
[1] = test system: CCRF-CEM; test: NCI DTP cell line screen (SRB), Leukemia; assay type: cell-based
[2] = test system: HOP-62; test: NCI DTP cell line screen (SRB), Non-Small Cell Lung Cancer; assay type: cell-based
Method: (§1) Screening of compounds 70 and 71 against several cancer cell lines The human tumor cell lines of the cancer screening panel are grown in RPMI 1640 medium containing 5% fetal bovine serum and 2 mM L-glutamine. For a typical screening experiment, cells are inoculated into 96 well microtiter plates in 100 μL at plating densities ranging from 5,000 to 40,000 cells/well depending on the doubling time of individual cell lines. After cell inoculation, the microtiter plates are incubated at 37° C., 5% CO2, 95% air and 100% relative humidity for 24 h prior to addition of experimental drugs.
(§2) After 24 h, two plates of each cell line are fixed in situ with TCA, to represent a measurement of the cell population for each cell line at the time of drug addition (Tz). Experimental drugs are solubilized in dimethyl sulfoxide at 400-fold the desired final maximum test concentration and stored frozen prior to use. At the time of drug addition, an aliquot of frozen concentrate is thawed and diluted to twice the desired final maximum test concentration with complete medium containing 50 μg/ml gentamicin. Additional four, 10-fold or ½ log serial dilutions are made to provide a total of five drug concentrations plus control. Aliquots of 100 μl of these different drug dilutions are added to the appropriate microtiter wells already containing 100 μl of medium, resulting in the required final drug concentrations.
(§3) Following drug addition, the plates are incubated for an additional 48 h at 37° C., 5% CO2, 95% air, and 100% relative humidity. For adherent cells, the assay is terminated by the addition of cold TCA. Cells are fixed in situ by the gentle addition of 50 μl of cold 50% (w/v) TCA (final concentration, 10% TCA) and incubated for 60 minutes at 4° C. The supernatant is discarded, and the plates are washed five times with tap water and air dried. Sulforhodamine B (SRB) solution (100 μl) at 0.4% (w/v) in 1% acetic acid is added to each well, and plates are incubated for 10 minutes at room temperature. After staining, unbound dye is removed by washing five times with 1% acetic acid and the plates are air dried. Bound stain is subsequently solubilized with 10 mM trizma base, and the absorbance is read on an automated plate reader at a wavelength of 515 nm. For suspension cells, the methodology is the same except that the assay is terminated by fixing settled cells at the bottom of the wells by gently adding 50 μl of 80% TCA (final concentration, 16% TCA). Using the seven absorbance measurements [time zero, (Tz), control growth, (C), and test growth in the presence of drug at the five concentration levels (Ti)], the percentage growth is calculated at each of the drug concentrations levels. Percentage growth inhibition is calculated as: [(Ti−Tz)/(C−Tz)]×100 for concentrations for which Ti>/=Tz [(Ti−Tz)/Tz]×100 for concentrations for which Ti<Tz
(§4) Three dose response parameters are calculated for each experimental agent. […] The drug concentration resulting in total growth inhibition (TGI) is calculated from Ti=Tz. […] Values are calculated for each of these three parameters if the level of activity is reached; however, if the effect is not reached or is exceeded, the value for that parameter is expressed as greater or less than the maximum or minimum concentration tested.
(§5) The methods described were used to test compounds 70 and 71 on a panel of sixty cell lines under a screening service provided by the Developmental Therapeutics Program at the National Institutes of Health. Shown in FIG. 1C are 1, RPMI-8226 leukemia cells; 2; NCI-H322M non-small cell lung cancer cells; 3, HT29 colon cancer cells; 4, U251 CNS cancer cells; 5, SK-MEL-28 melanoma cancer cells; 6, SK-OV-3 ovarian cancer cells; 7, RXF 393 renal cancer cells; 8, PC-3 prostate cancer cells; 9, MDA-MB-231 breast cancer cells.

[3] = test system: NCI-H322M; test: as above; assay type: cell-based
Method: as §1, §2, §3, §4, §5

[4] = test system: NCI-H460; test: as above; assay type: cell-based
Method: as §1, §2, §3, §4, §5

[5] = test system: NCI-H522; test: as above; assay type: cell-based, human; settings: for TGI: in M (unit assumed)
Method: as §1, §2, §3, §4, §5

[6] = test system: UACC-62; test: NCI DTP cell line screen (SRB), Melanoma; assay type: cell-based
[7] = test system: MCF7; test: NCI DTP cell line screen (SRB), Breast Cancer; assay type: cell-based, human; settings: for TGI: in M (unit assumed)
Method: as §1, §2, §3, §4, §5

[8] = test system: MDA-MB-435; test: NCI DTP cell line screen (SRB), Breast Cancer; assay type: cell-based, human; settings: for TGI: in M (unit assumed)
Method: as §1, §2, §3, §4, §5

[9] = read-out: LC50 (the source's name)

## NCC(=O)Nc1ccc(-n2nc(C(F)(F)F)cc2-c2ccc3c(ccc4ccccc43)c2)cc1 [Compound 70, 2-Amino-N-{4-[5-(2-phenanthrenyl)-3-(trifluoromethyl)-1H-pyrazol-1-yl]-phenyl}-acetamide]
[1]
  TGI: 2.49E−06
[1]; Log10 Concentration −4.0
  Percent Growth: −34%
[1]; Log10 Concentration −5.0
  Percent Growth: −43%
[1]; Log10 Concentration −6.0
  Percent Growth: 28%
[1]; Log10 Concentration −7.0
  Percent Growth: 81%
[1]; Log10 Concentration −8.0
  Percent Growth: 74%
[2]
  TGI: 3.01E−06
[2]; Log10 Concentration −4.0
  Percent Growth: −57%
[2]; Log10 Concentration −5.0
  Percent Growth: −70%
[2]; Log10 Concentration −6.0
  Percent Growth: 64%
[2]; Log10 Concentration −7.0
  Percent Growth: 93%
[2]; Log10 Concentration −8.0
  Percent Growth: 90%
[3]
  TGI: 2.18E−06
[3]; Log10 Concentration −4.0
  Percent Growth: −57%
[3]; Log10 Concentration −5.0
  Percent Growth: −84%
[3]; Log10 Concentration −6.0
  Percent Growth: 43%
[3]; Log10 Concentration −7.0
  Percent Growth: 51%
[3]; Log10 Concentration −8.0
  Percent Growth: 40%
[4]
  TGI: 2.64E−06
[4]; Log10 Concentration −4.0
  Percent Growth: −33%
[4]; Log10 Concentration −5.0
  Percent Growth: −46%
[4]; Log10 Concentration −6.0
  Percent Growth: 34%
[4]; Log10 Concentration −7.0
  Percent Growth: 77%
[4]; Log10 Concentration −8.0
  Percent Growth: 97%
[5]; Log10 Concentration −4.0
  Percent Growth: −37%
[5]; Log10 Concentration −5.0
  Percent Growth: −66%
[5]; Log10 Concentration −6.0
  Percent Growth: 97%
[5]; Log10 Concentration −7.0
  Percent Growth: 122%
[5]; Log10 Concentration −8.0
  Percent Growth: 110%
[5]
  TGI: 3.94E−06
[6]
  TGI: 3.15E−06
[6]; Log10 Concentration −4.0
  Percent Growth: −46%
[6]; Log10 Concentration −5.0
  Percent Growth: −80%
[6]; Log10 Concentration −6.0
  Percent Growth: 79%
[6]; Log10 Concentration −7.0
  Percent Growth: 94%
[6]; Log10 Concentration −8.0
  Percent Growth: 105%
[7]; MCF7, Log10 Concentration −4.0
  Percent Growth: −44%
[7]; MCF7, Log10 Concentration −5.0
  Percent Growth: −57%
[7]; MCF7, Log10 Concentration −6.0
  Percent Growth: 43%
[7]; MCF7, Log10 Concentration −7.0
  Percent Growth: 89%
[7]; MCF7, Log10 Concentration −8.0
  Percent Growth: 91%
[7]; MCF7
  TGI: 2.72E−06
[8]; Log10 Concentration −4.0
  Percent Growth: −14%
[8]; Log10 Concentration −5.0
  Percent Growth: −69%
[8]; Log10 Concentration −6.0
  Percent Growth: 68%
[8]; Log10 Concentration −7.0
  Percent Growth: 98%
[8]; Log10 Concentration −8.0
  Percent Growth: 103%
[8]
  TGI: 3.14E−06

## N=C(N)Nc1ccc(-n2nc(C(F)(F)F)cc2-c2ccc3c(ccc4ccccc43)c2)cc1 [Compound 71, 4-[5-(2-Phenanthrenyl)-3-(trifluoromethyl)-1H-pyrazol-1-yl]-phenyl-guanidine]
[1]
  GI50: 1230 nM
  TGI: 2.48E−06
[1]; Log10 Concentration −4.0
  Mean Optical Densities: 0.140
  Percent Growth: −53%
[1]; Log10 Concentration −5.0
  Mean Optical Densities: 0.002
  Percent Growth: −99%
[1]; Log10 Concentration −6.0
  Mean Optical Densities: 0.718
  Percent Growth: 65%
[1]; Log10 Concentration −7.0
  Mean Optical Densities: 0.811
  Percent Growth: 79%
[1]; Log10 Concentration −8.0
  Mean Optical Densities: 0.808
  Percent Growth: 78%
[1]; [9]
  CC50: 5 µM
[2]
  GI50: 1720 nM
  TGI: 3.12E−06
[2]; Log10 Concentration −4.0
  Mean Optical Densities: 0.329
  Percent Growth: −36%
[2]; Log10 Concentration −5.0
  Mean Optical Densities: 0.011
  Percent Growth: −98%
[2]; Log10 Concentration −6.0
  Mean Optical Densities: 1.255
  Percent Growth: 96%
[2]; Log10 Concentration −7.0
  Mean Optical Densities: 1.267
  Percent Growth: 97%
[2]; Log10 Concentration −8.0
  Mean Optical Densities: 1.285
  Percent Growth: 100%
[3]
  GI50: 1360 nM
  TGI: 2.64E−06
[3]; Log10 Concentration −4.0
  Mean Optical Densities: 0.257
  Percent Growth: −59%
[3]; Log10 Concentration −5.0
  Mean Optical Densities: −0.052
  Percent Growth: −100%
[3]; Log10 Concentration −6.0
  Mean Optical Densities: 1.031
  Percent Growth: 73%
[3]; Log10 Concentration −7.0
  Mean Optical Densities: 1.049
  Percent Growth: 76%
[3]; Log10 Concentration −8.0
  Mean Optical Densities: 0.988
  Percent Growth: 65%
[3]; [9]
  CC50: 5.14 µM
[4]
  GI50: 1640 nM
  TGI: 3.04E−06
[4]; Log10 Concentration −4.0
  Mean Optical Densities: 0.257
  Percent Growth: −20%
[4]; Log10 Concentration −5.0
  Mean Optical Densities: 0.011
  Percent Growth: −97%
[4]; Log10 Concentration −6.0
  Mean Optical Densities: 1.650
  Percent Growth: 90%
[4]; Log10 Concentration −7.0
  Mean Optical Densities: 1.658
  Percent Growth: 91%
[4]; Log10 Concentration −8.0
  Mean Optical Densities: 1.654
  Percent Growth: 91%
[5]
  GI50: 1450 nM
  TGI: 2.82E−06
[5]; Log10 Concentration −4.0
  Mean Optical Densities: 0.439
  Percent Growth: −43%
[5]; Log10 Concentration −5.0
  Mean Optical Densities: 0.037
  Percent Growth: −95%
[5]; Log10 Concentration −6.0
  Mean Optical Densities: 1.471
  Percent Growth: 78%
[5]; Log10 Concentration −7.0
  Mean Optical Densities: 1.558
  Percent Growth: 87%
[5]; Log10 Concentration −8.0
  Mean Optical Densities: 1.509
  Percent Growth: 82%
[6]
  GI50: 1440 nM
  TGI: 2.74E−06
[6]; Log10 Concentration −4.0
  Mean Optical Densities: 0.272
  Percent Growth: −60%
[6]; Log10 Concentration −5.0
  Mean Optical Densities: −0.041
  Percent Growth: −100%
[6]; Log10 Concentration −6.0
  Mean Optical Densities: 1.301
  Percent Growth: 78%
[6]; Log10 Concentration −7.0
  Mean Optical Densities: 1.338
  Percent Growth: 83%
[6]; Log10 Concentration −8.0
  Mean Optical Densities: 1.323
  Percent Growth: 81%
[6]; [9]
  CC50: 5.24 µM
[7]
  GI50: 1820 nM
[7]; Log10 Concentration −4.0
  Mean Optical Densities: 0.229
  Percent Growth: −49%
[7]; Log10 Concentration −5.0
  Mean Optical Densities: 0.073
  Percent Growth: −84%
[7]; Log10 Concentration −6.0
  Mean Optical Densities: 1.507
  Percent Growth: 97%
[7]; Log10 Concentration −7.0
  Mean Optical Densities: 1.340
  Percent Growth: 82%
[7]; Log10 Concentration −8.0
  Mean Optical Densities: 1.467
  Percent Growth: 93%
[7]; MCP7
  TGI: 3.44E−06
[8]
  GI50: 1700 nM
  TGI: 3.07E−06
[8]; Log10 Concentration −4.0
  Mean Optical Densities: 0.295
  Percent Growth: −27%
[8]; Log10 Concentration −5.0
  Mean Optical Densities: −0.073
  Percent Growth: −100%
[8]; Log10 Concentration −6.0
  Mean Optical Densities: 1.444
  Percent Growth: 95%
[8]; Log10 Concentration −7.0
  Mean Optical Densities: 1.382
  Percent Growth: 89%
[8]; Log10 Concentration −8.0
  Mean Optical Densities: 1.376
  Percent Growth: 89%
